This note sets out measurements from US12454564B2, “Compositions and methods for T cell engineering” (Gracell Biotechnologies (Shanghai) Co., Ltd., priority 2018, dated 2025).

“Also recorded” adds a separate entry of the source.

What all share (experiment): gRNA knockout efficiency
Data set [1] concerns CD2. Type of data set: cell-based.
In data set [2] the test system is CD7. The following applies: used together with TRAC-gRNA1.
Protocol: (§1) For gene editing, 3 μg Cas9 protein and 1.5 μg gRNA were mixed in 20 μl and incubated at 37° C. or room temperature for 15 minutes to form ribonucleoprotein (RNP). Then RNP was transfected into T cells by Lonza 4D Nucleofector®. Gene knockout efficiency was determined by the ratio of the cells expressing the protein as detected by flow cytometry (FACS).
For gene editing, 3 μg Cas9 protein and 1.5 μg gRNA were mixed in 20 μl and incubated at 37° C. or room temperature for 15 minutes to form ribonucleoprotein (RNP). Then RNP was transfected into T cells by Lonza 4D Nucleofector®. Gene knockout efficiency was determined by the ratio of the cells expressing the protein as detected by flow cytometry.
Data set [3] has as its system TCR.
Protocol: as §1
First, gRNA sequences targeting the exon of the TCR conserved region were designed at http://crispr.mit.edu, and two gRNA sequences with scores above 80 were selected for higher knockout efficiency. For the gRNA primer, the forward primer comprises a T7 promotor followed by 20 bp of the target sequence, and the reverse primer has 20 bp of the complementary sequence. Plasmids were used as PCR template. After purification, T7-PCR product was further used as the template for MEGAshortscript® T7 kit to obtain RNA. The RNA was purified with a MEGAclear® column and eluted with RNA-free water. Cas9 plasmid was purchased from Addgene.
Meanwhile, the knockout efficiency of the gRNA was analyzed by T7E1, TIDE and flow cytometry.
For gene editing, 3 μg Cas9 protein and 1.5 μg gRNA were mixed in 20 μl and incubated at 37° C. or room temperature for 15 minutes to form ribonucleoprotein (RNP). […] Gene knockout efficiency was determined by the ratio of the cells expressing the protein as detected by flow cytometry.

For the substance “CD2 gRNA2: gRNA GTGCCACAAAGACCATCAAG (SEQ ID NO 30) (listed as DNA, chemistry not given here)”, in data set [1], the CD2 knockout efficiency result is “the highest CD2 knockout efficiencies”.
With “CD7-gRNA1: gRNA GAGGTCAATGTCTACGGCTC (SEQ ID NO 25) (listed as DNA, chemistry not given here)”, the CD7 knockout efficiency entry in data set [2] was “high knockout efficiencies; also recorded: obviously better”.
For “CD7-gRNA4: gRNA GGAGCAGGTGATGTTGACGG (SEQ ID NO 28) (listed as DNA, chemistry not given here)”, in data set [2], the CD7 knockout efficiency entry is “obviously better”.
For “TRAC-gRNA2: gRNA TCAGGGTTCTGGATATCTGT (SEQ ID NO 21) (listed as DNA, chemistry not given here)”, the “knockout efficiency for TCR” value in data set [3] is listed as “high knockout efficiencies”.
